Patent US20140323418A1, “SELECTIVE KINASE INHIBITORS” (PORTOLA PHARMACEUTICALS, INC., priority 2011, published 2014)
pIC50: −log10 of the molar value.

molecular target: T1, full length active recombinant SYK enzyme (Homo sapiens, UniProt P43405); experiment: Inhibition of Syk tyrosine phosphorylation activity (LANCE TR-FRET kinase assay); format: biochemical; conditions: 1 nM SYK, 550 nM substrate, 100 μM ATP, 1 hour room temperature
T1 construct: full length active recombinant SYK enzyme (Millipore, Calif.); purchased Millipore

| Compound | pIC50 |
| --- | --- |
| NC(=O)c1cnc(N[C@@H]2CCC[C@@H](F)[C@@H]2N)nc1Nc1cccc(-n2nccn2)c1 (racemic) [Example 242, (±)-4-(3-(2H-1,2,3-triazol-2-yl)phenylamino)-2-((1R,2R,3R)-2-amino-3-fluorocyclohexylamino)pyrimidine-5-carboxamide] | 7.00 to 8.00 |
| CCC(Nc1ncc(C(N)=O)c(Nc2cccc(C)c2)n1)C1(N)CC1 (racemic) [Example 125, (±)-2-(1-(1-aminocyclopropyl)propylamino)-4-(m-tolylamino)pyrimidine-5-carboxamide] | 8.00 to 9.00 |
| NC(=O)c1cnc(N[C@@H]2[C@H](F)CCC[C@@H]2N)nc1Nc1cccc(-n2nccn2)c1 (racemic) [Example 175, (±)-4-(3-(2H-1,2,3-triazol-1-yl)phenylamino)-2-((1S,2S,6R)-2-amino-6-fluorocyclohexylamino)pyrimidine-5-carboxamide] | 7.00 to 8.00 |
| N#CCN[C@H]1CCCC[C@H]1Nc1ncc(C(N)=O)c(Nc2cccc(-n3nccn3)c2)n1 [Example 11, 4-(3-(2H-1,2,3-triazol-2-yl)phenylamino)-2-((1R,2S)-2-(cyanomethylamino)cyclohexylamino)pyrimidine-5-carboxamide] | 6.00 to 7.00 |
| COc1ccc(Nc2ncc(C(N)=O)c(NC3CCC(N)CC3)n2)cn1 (stereo in doubt) [Example 248, 4-(trans-4-aminocyclohexylamino)-2-(6-methoxypyridin-3-ylamino)pyrimidine-5-carboxamide] | 6.00 to 7.00 |
| Cc1ccc(Nc2nc(N[C@H]3[C@@H](N)CCCC3(F)F)ncc2C(N)=O)cc1 [Example 38, 2-(((1S,6S)-6-amino-2,2-difluorocyclohexyl)amino)-4-(p-tolylamino)pyrimidine-5-carboxamide] | 7.00 to 8.00 |
| CC[C@@H](Nc1nc(Nc2cc(C)ns2)ncc1C(N)=O)C(N)=O [Example 205] | 6.00 to 7.00 |
| CC(C)[C@@H](Nc1ncc(C(N)=O)c(Nc2cccc(-n3cccn3)c2)n1)C1(N)CC1 [Example 140, (R)-4-(3-(1H-pyrazol-1-yl)phenylamino)-2-(1-(1-aminocyclopropyl)-2-methylpropylamino)pyrimidine-5-carboxamide] | 8.00 to 9.00 |
| NC(=O)c1cnc(NCC2(N)CC2)nc1Nc1cccc(-n2cccn2)c1 [Example 106, 4-(3-(1H-pyrazol-1-yl)phenylamino)-2-((1-aminocyclopropyl)methylamino)pyrimidine-5-carboxamide] | 7.00 to 8.00 |
| NC(=O)c1cnc(N[C@@H]2CCCC[C@@H]2N)nc1Nc1cnn2ccccc12 [Example 43, 2-(((1R,2S)-2-aminocyclohexyl)amino)-4-(pyrazolo[1,5-a]pyridin-3-ylamino)pyrimidine-5-carboxamide] | 8.00 to 9.00 |
| NC(=O)c1cnc(N[C@@H]2CCC[C@H](F)[C@@H]2N)nc1Nc1cccc(-n2nccn2)c1 (racemic) [Example 174] | 7.00 to 8.00 |
| Cc1cccc(Nc2nc(N[C@@H]3C[C@@H](C(N)=O)CC[C@@H]3N)ncc2C(N)=O)c1 (racemic) [Example 243, 2-((1R,2S,5S)-2-amino-5-carbamoylcyclohexylamino)-4-(m-tolylamino)pyrimidine-5-carboxamide] | 6.00 to 7.00 |
| NC(=O)c1cnc(N[C@H](C2CC2)C2(N)CC2)nc1Nc1cc(F)cc(F)c1 [Example 157, (R)-2-(1-(1-aminocyclopropyl)(cyclopropyl)methylamino)-4-(3,5-difluorophenylamino)pyrimidine-5-carboxamide] | 7.00 to 8.00 |
| Cc1cc(Nc2nc(N[C@@H]3CCCC[C@@H]3N)ncc2C(N)=O)sn1 [Example 49, 2-(((1R,2S)-2-aminocyclohexyl)amino)-4-((3-methylisothiazol-5-yl)amino)pyrimidine-5-carboxamide] | 8.00 to 9.00 |
| NC(=O)c1cnc(N[C@@H]2CCCC[C@@H]2N)nc1Nc1cccc(Oc2nc3ccccc3s2)c1 [Example 204] | 7.00 to 8.00 |
| NC(=O)c1cnc(NC[C@@H](N)CC(F)F)nc1Nc1cccc2c1CCN2CC(F)(F)F [Example 97] | 7.00 to 8.00 |
| NC(=O)c1cnc(N[C@H](C2CC2)C2(N)CC2)nc1Nc1cccc(-n2cccn2)c1 [Example 151, (R)-4-(3-(1H-pyrazol-1-yl)phenylamino)-2-(1-(1-aminocyclopropyl)(cyclopropyl)methylamino)pyrimidine-5-carboxamide] | 8.00 to 9.00 |
| NC(=O)c1cnc(N[C@H]2[C@@H](N)CCCC2(F)F)nc1Nc1cccc(-n2cccn2)c1 [Example 34, 4-((3-(1H-pyrazol-1-yl)phenyl)amino)-2-(((1S,6S)-6-amino-2,2-difluorocyclohexyl)amino)pyrimidine-5-carboxamide] | 8.00 to 9.00 |
| NC(=O)c1cnc(N[C@@H]2CCCC[C@@H]2N)nc1Nc1cccc(-n2ncc[n+]2[O-])c1 [Example 251, 2-(3-((2-(((1R,2S)-2-aminocyclohexyl)amino)-5-carbamoylpyrimidin-4-yl)amino)phenyl)-2H-1,2,3-triazole 1-oxide] | 7.00 to 8.00 |

| Compound | pIC50 |
| --- | --- |
| NC(=O)c1cnc(NC[C@@H](N)CC(F)F)nc1Nc1cccc2c1ccn2CC(F)(F)F [Example 84, (S)-2-(2-amino-4,4-difluorobutylamino)-4-(1-(2,2,2-trifluoroethyl)-1H-indol-4-ylamino)pyrimidine-5-carboxamide] | 8.00 to 9.00 |
| NC(=O)c1cnc(N[C@H](C2CC2)C2(N)CC2)nc1Nc1ccc2ncccc2c1 [Example 155, (R)-2-(1-(1-aminocyclopropyl)(cyclopropyl)methylamino)-4-(quinolin-6-ylamino)pyrimidine-5-carboxamide] | 8.00 to 9.00 |
| NC(=O)c1cnc(N[C@H](C2CC2)C2(N)CC2)nc1Nc1ccc(F)cc1 [Example 170, (R)-2-(1-(1-aminocyclopropyl)(cyclopropyl)methylamino)-4-(4-fluorophenylamino)pyrimidine-5-carboxamide] | 6.00 to 7.00 |
| CC[C@@H](Nc1ncc(C(N)=O)c(Nc2cc(-n3cccn3)cc(-n3cccn3)c2)n1)C(N)=O [Example 250, (R)-2-((1-amino-1-oxobutan-2-yl)amino)-4-((3,5-di(1H-pyrazol-1-yl)phenyl)amino)pyrimidine-5-carboxamide] | 6.00 to 7.00 |
| NC(=O)c1cnc(N[C@H](C2CC2)C2(N)CC2)nc1Nc1cnc2ccccc2c1 [Example 152, (R)-2-(1-(1-aminocyclopropyl)(cyclopropyl)methylamino)-4-(quinolin-3-ylamino)pyrimidine-5-carboxamide] | 8.00 to 9.00 |
| Cc1csc(Nc2nc(N[C@@H](C(N)=O)C(C)C)ncc2C(N)=O)c1 [Example 195, (R)-2-(1-amino-3-methyl-1-oxobutan-2-ylamino)-4-(4-methylthiophen-2-ylamino)pyrimidine-5-carboxamide] | 8.00 to 9.00 |
| Cc1cc2c(Nc3nc(NC[C@@H](N)CC(F)F)ncc3C(N)=O)cccc2n1C [Example 87, (S)-2-(2-amino-4,4-difluorobutylamino)-4-(1,2-dimethyl-1H-indol-4-ylamino)pyrimidine-5-carboxamide] | 7.00 to 8.00 |
| Cc1cccc(Nc2nc(N[C@@H]3CC[C@@H](C(=O)O)C[C@@H]3N)ncc2C(N)=O)c1 (racemic) [Example 187, (1R,3S,4R)-3-amino-4-(5-carbamoyl-4-(m-tolylamino)pyrimidin-2-ylamino)cyclohexanecarboxylic acid] | 8.00 to 9.00 |
| Cc1cccc(Nc2nc(N[C@@H]3CC[C@H](N)C3)ncc2C(N)=O)c1 [Example 119, 4-(m-toluidino)-2-((1R,3S)-3-aminocyclopentylamino)pyrimidine-5-carboxamide] | 6.00 to 7.00 |
| NC(=O)c1cnc(N[C@@H]2CCCC(F)(F)[C@@H]2N)nc1Nc1cccc2c1ccn2CC(F)(F)F [Example 93, 2-((1R,2R)-2-amino-3,3-difluorocyclohexylamino)-4-(1-(2,2,2-trifluoroethyl)-1H-indol-4-ylamino)pyrimidine-5-carboxamide] | 7.00 to 8.00 |
| NC(=O)c1cnc(Nc2ccccc2)nc1NC1CCC(N)CC1 (stereo not shown) [Example 183, 4-(4-aminocyclohexylamino)-2-(phenylamino)pyrimidine-5-carboxamide] | 7.00 to 8.00 |
| CC(C)[C@@H](Nc1ncc(C(N)=O)c(Nc2cnc3ccccc3c2)n1)C1(N)CC1 [Example 158, (R)-2-(1-(1-aminocyclopropyl)-2-methylpropylamino)-4-(quinolin-3-ylamino)pyrimidine-5-carboxamide] | 8.00 to 9.00 |
| Cc1cccc(Nc2nc(NC3(CN)CC3)ncc2C(N)=O)c1 [Example 117, 4-(m-toluidino)-2-(1-(aminomethyl)cyclopropylamino)pyrimidine-5-carboxamide] | 7.00 to 8.00 |
| NC(=O)c1cnc(N[C@@H]2CCCC[C@@H]2CO)nc1Nc1cccc(-n2nccn2)c1 (racemic) [Example 256, 4-((3-(2H-1,2,3-triazol-2-yl)phenyl)amino)-2-(((1R,2S)-2-(hydroxymethyl)cyclohexyl)amino)pyrimidine-5-carboxamide] | 6.00 to 7.00 |
| CC(=O)Oc1cnn(-c2cccc(Nc3nc(N[C@@H]4CCCC[C@@H]4N)ncc3C(N)=O)c2)n1 [Example 253, 2-(3-((2-(((1R,2S)-2-aminocyclohexyl)amino)-5-carbamoylpyrimidin-4-yl)amino)phenyl)-2H-1,2,3-triazol-4-yl acetate] | < 6.00 |
| NC(=O)c1cnc(N[C@H]2[C@@H](N)CCCC2(F)F)nc1Nc1csc2ncccc12 [Example 36, 2-(((1S,6S)-6-amino-2,2-difluorocyclohexyl)amino)-4-(thieno[2,3-b]pyridin-3-ylamino)pyrimidine-5-carboxamide] | 7.00 to 8.00 |
| NC(=O)c1cnc(N[C@@H]2CCCC[C@@H]2N)nc1Nc1ccc(Br)c(-n2nccn2)c1 [Example 20, 2-((1R,2S)-2-aminocyclohexylamino)-4-(4-bromo-3-(2H-1,2,3-triazol-2-yl)phenylamino)pyrimidine-5-carboxamide] | 7.00 to 8.00 |
| NC(=O)c1cnc(N[C@@H]2CCCC[C@@H]2N)nc1Nc1ccc(-c2ncco2)cc1 [Example 255, 2-(((1R,2S)-2-aminocyclohexyl)amino)-4-((4-(oxazol-2-yl)phenyl)amino)pyrimidine-5-carboxamide] | 7.00 to 8.00 |
